Earlier results on two molecules are cited in US20100145053A1, “MODIFIED RELEASE CLOPIDOGREL FORMULATION” (CADILA HEALTHCARE LIMITED, priority 2006, published 2010).

Data set [1] deals with ADP-induced platelet aggregation. The note with it: in vivo.
The conditions of data set [2]: in vivo.
The subject of data set [3] is platelet aggregation in response to ADP. The note with it: 300-mg loading dose followed by 75 mg daily.
Data set [4] concerns platelet aggregation to ADP. As to conditions: 4 hours after 600-mg load.

Read-outs that look alike come from different tables or passages of the source.

Take `COC(=O)[C@H](c1ccccc1Cl)N1CCc2sccc2C1` [Clopidogrel, Methyl (+)-(S)-alpha-(o-chlorophenyl)-6,7-dihydrothieno(3,2-c)pyridine-5(4H)-acetate]: the “Time for platelet aggregation and bleeding time to return to baseline after treatment is discontinued” value in data set [1] is given as “about 5 days”. Moreover, the “Share of Clopidogrel available to undergo hepatic conversion to the active metabolite” value in data set [2] is given as 15%. Also, the “Share of Clopidogrel inactivated by esterases in the blood after absorption” value in data set [2] is listed as 85%. For the same molecule, the “Patients with Clopidogrel resistance (<10% reduction in aggregation in response to 5 μmol/L ADP)” value in data set [3] (at 2 hours) is on record as 63 % of patients; in data set [3] (at 24 hours), 31 % of patients; in data set [3] (at 5 days), 31 % of patients; in data set [3] (at 30 days) it was 15 % of patients. In the data set with phosphodiesterase, the “Inhibition of phosphodiesterase activity” value is given as “does not inhibit”. Further, the “Nonresponders (<10% reduction in platelet aggregation)” value is 5% in data set [4] (5 μmol/L ADP) and 11% in data set [4] (20 μmol/ADP). Besides, the “Semiresponders (10% to 29% reduction in platelet aggregation)” value is listed as 9% in data set [4] (5 μmol/L ADP) and 26% in data set [4] (20 μmol/ADP).

As for `COC(=O)[C@H](c1ccccc1Cl)N1CCc2sccc2C1` [Clopidogrel bisulfate], the “Time of peak concentration of Clopidogrel and its active metabolite post dosing” value in data set [2] is 1 to 3 h.
